Measured values as given in patent US9073940B2, “Tricyclic pyrazol amine derivatives” (MERCK SERONO SA, priority 2009, dated 2015).
pIC50: −log10 of the molar value.

System: 4 PI3K isoforms (Human recombinant GST-PI3K)
Experiment: PI3K scintillation proximity assay, best IC50 obtained with the four isoforms (alpha, beta, delta, gamma)
Type: biochemical
Conditions: best IC50 obtained with the four isoforms of PI3K; read-out: Best potency measured on the 4 PI3K isoforms

With `O=C(c1nn(-c2cccc(CN3CCCC(F)(F)C3)c2)c2c1CS(=O)(=O)c1ccccc1-2)N1CCOCC1` [Example 244, 1-{3-[(3,3-Difluoropiperidin-1-yl)methyl]phenyl}-3-(morpholin-4-ylcarbonyl)-1,4-dihydrothiochromeno[4,3-c]pyrazole 5,5-dioxide] the pIC50 was 5.81.
`O=C(c1nn(-c2cccc(CN3CCCC3)c2)c2c1CS(=O)(=O)c1ccccc1-2)N1CCOCC1` [Example 245, 3-(Morpholin-4-ylcarbonyl)-1-[3-(pyrrolidin-1-ylmethyl)phenyl]-1,4-dihydrothiochromeno[4,3-c]pyrazole 5,5-dioxide] gave a pIC50 of 6.29.
Work on `O=C(c1nn(C2CCOCC2)c2c1CS(=O)(=O)c1sccc1-2)N1CCOCC1` [Example 246, 3-(Morpholin-4-ylcarbonyl)-1-(tetrahydro-2H-pyran-4-yl)-1,4-dihydrothieno[3′,2′:5,6]thiopyrano[4,3-c]pyrazole 5,5-dioxide] yielded a pIC50 of 6.08.
`O=C(c1nn(-c2cccc(CN3CCS(=O)(=O)CC3)c2)c2c1CS(=O)(=O)c1ccccc1-2)N1CCOCC1` [Example 247, 1-{3-[(1,1-Dioxidothiomorpholin-4-yl)methyl]phenyl}-3-(morpholin-4-ylcarbonyl)-1,4-dihydrothiochromeno[4,3-c]pyrazole 5,5-dioxide] gave a pIC50 of 6.19.
`COCc1cccc(-n2nc(C(=O)N3CCOCC3)c3c2-c2ccccc2S(=O)(=O)C3)c1` [Example 248, 1-[3-(Methoxylmethyl)phenyl]-3-(morpholin-4-ylcarbonyl)-1,4-dihydrothiochromeno[4,3-c]pyrazole 5,5-dioxide] showed a pIC50 of 6.00.
`O=C(c1nn(C2CCOCC2)c2c1CS(=O)(=O)c1c(F)cccc1-2)N1CCOCC1` [Example 249, 6-Fluoro-3-(morpholin-4-ylcarbonyl)-1-(tetrahydro-2H-pyran-4-yl)-1,4-dihydrothiochromeno[4,3-c]pyrazole 5,5-dioxide] was tested, and the pIC50 was 5.99.
For `NC(=O)c1cccc2c1S(=O)(=O)Cc1c(C(=O)N3CCOCC3)nn(-c3ccccc3)c1-2` [Example 250, 3-(Morpholin-4-ylcarbonyl)-1-phenyl-1,4-dihydrothiochromeno[4,3-c]pyrazole-6-carboxamide 5,5-dioxide], the pIC50 was 5.10.
`CN1CCN(Cc2ccc(-n3nc(C(=O)N4CCOCC4)c4c3-c3ccccc3S(=O)(=O)C4)cn2)CC1` [Example 252, 1-{6-[(4-Methylpiperazin-1-yl)methyl]pyridin-3-yl}-3-(morpholin-4-ylcarbonyl)-1,4-dihydrothiochromeno[4,3-c]pyrazole 5,5-dioxide] showed a pIC50 of 6.47.
For `CN(C)CCN1CCCC(n2nc(C(=O)N3CCOCC3)c3c2-c2ccccc2S(=O)(=O)C3)C1` (stereo not drawn) [Example 253, N,N-Dimethyl-2-{3-[3-(morpholin-4-ylcarbonyl)-5,5-dioxidothiochromeno[4,3-c]pyrazol-1 (4H)-yl]piperidin-1-yl}ethanamine], the pIC50 was 7.14.
Work on `CC(C)(C)OC(=O)N1CCC(n2nc(C(=O)N3CCOCC3)c3c2-c2ccccc2S(=O)(=O)C3)C1` (stereo not drawn) [Example 254] yielded a pIC50 of 5.92.
With `COCCN1CCC(n2nc(C(=O)N3CCOCC3)c3c2-c2ccccc2S(=O)(=O)C3)C1` (stereo not drawn) [Example 255, 1-[1-(2-Methoxyethyl)pyrrolidin-3-yl]-3-(morpholin-4-ylcarbonyl)-1,4-dihydrothiochromeno[4,3-c]pyrazole 5,5-dioxide] the pIC50 was 5.83.
Molecule `COCCCN1CCC(n2nc(C(=O)N3CCOCC3)c3c2-c2ccccc2S(=O)(=O)C3)C1` (stereo not drawn) [Example 256, 1-[1-(3-Methoxypropyl)pyrrolidin-3-yl]-3-(morpholin-4-ylcarbonyl)-1,4-dihydrothiochromeno[4,3-c]pyrazole 5,5-dioxide] has a pIC50 of 6.03.
`CC(C)(C)OC(=O)N1CCCC(n2nc(C(=O)N3CCOCC3)c3c2-c2ccccc2S(=O)(=O)C3)CC1` (stereo not drawn) [Example 257] gave a pIC50 of 6.08.
`COCCCN1CCCC(n2nc(C(=O)N3CCOCC3)c3c2-c2ccccc2S(=O)(=O)C3)CC1` (stereo not drawn) [Example 258, 1-[1-(3-Methoxypropyl)azepan-4-yl]-3-(morpholin-4-ylcarbonyl)-1,4-dihydrothiochromeno[4,3-c]pyrazole 5,5-dioxide] was tested, and the pIC50 was 6.36.
Work on `O=C(c1nn(-c2cccc(CN3CCC(F)(F)CC3)c2)c2c1CS(=O)(=O)c1ccccc1-2)N1CCOCC1` [Example 260, 1-{3-[(4,4-Difluoropiperidin-1-yl)methyl]phenyl}-3-(morpholin-4-ylcarbonyl)-1,4-dihydrothiochromeno[4,3-c]pyrazole 5,5-dioxide] yielded a pIC50 of 6.25.
For `O=C(c1nn(-c2cccc(CN3CC(F)(F)C3)c2)c2c1CS(=O)(=O)c1ccccc1-2)N1CCOCC1` [Example 261, 1-{3-[(3,3-Difluoroazetidin-1-yl)methyl]phenyl}-3-(morpholin-4-ylcarbonyl)-1,4-dihydrothiochromeno[4,3-c]pyrazole 5,5-dioxide], the pIC50 was 6.19.
`COC1CN(Cc2cccc(-n3nc(C(=O)N4CCOCC4)c4c3-c3ccccc3S(=O)(=O)C4)c2)C1` [Example 262, 1-{3-[(3-Methoxyazetidin-1-yl)methyl]phenyl}-3-(morpholin-4-ylcarbonyl)-1,4-dihydrothiochromeno[4,3-c]pyrazole 5,5-dioxide] showed a pIC50 of 6.56.
`O=C(c1nn(C2CCCN(CCn3cccn3)C2)c2c1CS(=O)(=O)c1ccccc1-2)N1CCOCC1` (stereo not drawn) [Example 263, 3-(Morpholin-4-ylcarbonyl)-1-{1-[2-(1H-pyrazol-1-yl)ethyl]piperidin-3-yl}-1,4-dihydrothiochromeno[4,3-c]pyrazole 5,5-dioxide] gave a pIC50 of 6.77.
`O=C(c1nn(C2CCOCC2)c2c1CS(=O)(=O)c1c(Cl)cccc1-2)N1CCOCC1` [Example 264, 6-Chloro-3-(morpholin-4-ylcarbonyl)-1-(tetrahydro-2H-pyran-4-yl)-1,4-dihydrothiochromeno[4,3-c]pyrazole 5,5-dioxide] showed a pIC50 of 6.17.
For `O=C(c1nn(C2CCCN(CC3CCOC3)C2)c2c1CS(=O)(=O)c1ccccc1-2)N1CCOCC1` (stereo not drawn) [Example 265, 3-(Morpholin-4-ylcarbonyl)-1-[1-(tetrahydrofuran-3-ylmethyl)piperidin-3-yl]-1,4-dihydrothiochromeno[4,3-c]pyrazole 5,5-dioxide], the pIC50 was 7.01.
`COC1CCN(Cc2cccc(-n3nc(C(=O)N4CCOCC4)c4c3-c3ccccc3S(=O)(=O)C4)c2)C1` (stereo not drawn) [Example 266, 1-{3-[(3-Methoxypyrrolidin-1-yl)methyl]phenyl}-3-(morpholin-4-ylcarbonyl)-1,4-dihydrothiochromeno[4,3-c]pyrazole 5,5-dioxide] showed a pIC50 of 6.46.
With `COC1CCN(Cc2ccc(-n3nc(C(=O)N4CCOCC4)c4c3-c3ccccc3S(=O)(=O)C4)cc2)C1` (stereo not drawn) [Example 267, 1-{4-[(3-Methoxypyrrolidin-1-yl)methyl]phenyl}-3-(morpholin-4-ylcarbonyl)-1,4-dihydrothiochromeno[4,3-c]pyrazole 5,5-dioxide] the pIC50 was 7.23.
Molecule `O=C(c1nn(-c2ccc(CN3CCC(F)(F)CC3)cc2)c2c1CS(=O)(=O)c1ccccc1-2)N1CCOCC1` [Example 268, 1-{4-[(4,4-Difluoropiperidin-1-yl)methyl]phenyl}-3-(morpholin-4-ylcarbonyl)-1,4-dihydrothiochromeno[4,3-c]pyrazole 5,5-dioxide] has a pIC50 of 6.64.
Molecule `O=C(c1nn(C2CCN(CCC3CCOCC3)C2)c2c1CS(=O)(=O)c1ccccc1-2)N1CCOCC1` (stereo not drawn) [Example 270, 3-(Morpholin-4-ylcarbonyl)-1-{1-[2-(tetrahydro-2H-pyran-4-yl)ethyl]pyrrolidin-3-yl}-1,4-dihydrothiochromeno[4,3-c]pyrazole 5,5-dioxide] has a pIC50 of 6.55.
For `O=C(c1nn(-c2ccc(CN3CC(F)(F)C3)cc2)c2c1CS(=O)(=O)c1ccccc1-2)N1CCOCC1` [Example 271, 1-{4-[(3,3-Difluoroazetidin-1-yl)methyl]phenyl}-3-(morpholin-4-ylcarbonyl)-1,4-dihydrothiochromeno[4,3-c]pyrazole 5,5-dioxide], the pIC50 was 6.40.
With `COC1CN(Cc2ccc(-n3nc(C(=O)N4CCOCC4)c4c3-c3ccccc3S(=O)(=O)C4)cc2)C1` [Example 272, 1-{4-[(3-Methoxyazetidin-1-yl)methyl]phenyl}-3-(morpholin-4-ylcarbonyl)-1,4-dihydrothiochromeno[4,3-c]pyrazole 5,5-dioxide] the pIC50 was 6.78.
`O=C(c1nn(C2CCCN(CCN3CC(F)(F)C3)C2)c2c1CS(=O)(=O)c1ccccc1-2)N1CCOCC1` (stereo not drawn) [Example 273, 1-{1-[2-(3,3-Difluoroazetidin-1-yl)ethyl]piperidin-3-yl}-3-(morpholin-4-ylcarbonyl)-1,4-dihydrothiochromeno[4,3-c]pyrazole 5,5-dioxide] was tested, and the pIC50 was 7.44.
`O=C(c1nn(C2CCN(CCCl)C2)c2c1CS(=O)(=O)c1ccccc1-2)N1CCOCC1` (stereo not drawn) [Example 274] was tested, and the pIC50 was 6.52.
`O=C(c1nn(C2CCN(CCN3CCOCC3)C2)c2c1CS(=O)(=O)c1ccccc1-2)N1CCOCC1` (stereo not drawn) [Example 275, 3-(Morpholin-4-ylcarbonyl)-1-[1-(2-morpholin-4-ylethyl)pyrrolidin-3-yl]-1,4-dihydrothiochromeno[4,3-c]pyrazole 5,5-dioxide] was tested, and the pIC50 was 6.72.
For `O=C(NC1CCCCC1)N1CCC(n2nc(C(=O)N3CCOCC3)c3c2-c2ccccc2S(=O)(=O)C3)C1` (stereo not drawn) [Example 276], the pIC50 was 6.06.
`O=C(c1nn(C2CCN(CCN3CCC(F)CC3)C2)c2c1CS(=O)(=O)c1ccccc1-2)N1CCOCC1` (stereo not drawn) [Example 277, 1-{1-[2-(4-Fluoropiperidin-1-yl)ethyl]pyrrolidin-3-yl}-3-(morpholin-4-ylcarbonyl)-1,4-dihydrothiochromeno[4,3-c]pyrazole 5,5-dioxide] gave a pIC50 of 6.83.
In the case of `COCc1ccc(-n2nc(C(=O)N3CCOCC3)c3c2-c2ccccc2S(=O)(=O)C3)cc1` [Example 278, 1-[4-(Methoxymethyl)phenyl]-3-(morpholin-4-ylcarbonyl)-1,4-dihydrothiochromeno[4,3-c]pyrazole 5,5-dioxide], the pIC50 was 6.18.
With `O=C(CC1CCCCC1)N1CCC(n2nc(C(=O)N3CCOCC3)c3c2-c2ccccc2S(=O)(=O)C3)C1` (stereo not drawn) [Example 279, 1-[1-(Cyclohexylacetyl)pyrrolidin-3-yl]-3-(morpholin-4-ylcarbonyl)-1,4-dihydrothiochromeno[4,3-c]pyrazole 5,5-dioxide] the pIC50 was 6.15.
